From patent US20060083830A1, “Polylysine-containing food additive and acidic adjuvant” (priority 2004, published 2006)
Values joined by “and” are separate entries in the source; they are usually repeats but may differ in a detail not shown here. Equal values may be shown once.

Tested on: Listeria monocytogenes
Experiment: Listeria monocytogenes on boiled dumpling sheets with ε-polylysine in the dough, vacuum sealed, 10° C., CFU determination
Conditions: for Log Reduction: vs control Group A

Q: “poly(imino(2-amino-1-oxo-1,6-hexanediyl)) [ε-PL]” was tested. Which CFU/dumpling (1000 ppm ε-PL, after 1 hour) did it give?
A: The CFU/dumpling was 3.80E+02 CFU/dumpling and 4.00E+02 CFU/dumpling and 2.00E+02 CFU/dumpling.

Q: And the “average Log Value” (1000 ppm ε-PL, after 1 hour)?
A: The value was 2.15.

Q: What about the “average of CFU/dumpling” value (1000 ppm ε-PL, after 1 hour) of the same substance?
A: Its value is 3.27E+02 CFU/dumpling.

Q: What about the “Log Reduction” value (1000 ppm ε-PL, after 1 hour) of the same substance?
A: The value was 0.89.

Q: What about the “average Log Value” (1000 ppm ε-PL, after 24 hours) of the same substance?
A: Its value is 2.32.

Q: And the “average of CFU/dumpling” value (1000 ppm ε-PL, after 24 hours)?
A: The value was 2.10E+02 CFU/dumpling.

Q: And the “Log Reduction” value (1000 ppm ε-PL, after 24 hours)?
A: Its value is 2.42.

Q: What about the post-lethality effect (2000 ppm and above, limits of detection 10 CFU/piece) of the same substance?
A: The post-lethality effect was “killed the Listeria down to the limits of detection”.

Q: What about the CFU/dumpling (2000 ppm ε-PL, after 1 hour) of the same substance?
A: The CFU/dumpling was less than 1.00E+01 CFU/dumpling.

Q: What about the “average Log Value” (2000 ppm ε-PL, after 1 hour) of the same substance?
A: Its value is less than 1.00.

Q: What about the “average of CFU/dumpling” value (2000 ppm ε-PL, after 1 hour) of the same substance?
A: The value was less than 1.00E+01 CFU/dumpling.

Q: What about the “Log Reduction” value (2000 ppm ε-PL, after 1 hour) of the same substance?
A: The value was greater than 2.41.

Q: What about the CFU/dumpling (2000 ppm ε-PL, after 24 hours) of the same substance?
A: Its CFU/dumpling is less than 1.00E+01 CFU/dumpling.

Q: What about the “average Log Value” (2000 ppm ε-PL, after 24 hours) of the same substance?
A: The value was less than 1.00.

Q: And the “average of CFU/dumpling” value (2000 ppm ε-PL, after 24 hours)?
A: The value was less than 1.00E+01 CFU/dumpling.

Q: What about the “Log Reduction” value (2000 ppm ε-PL, after 24 hours) of the same substance?
A: Its value is greater than 3.74.

Q: And the CFU/dumpling (3000 ppm ε-PL, after 1 hour)?
A: The CFU/dumpling was less than 1.00E+01 CFU/dumpling.

Q: What about the “average Log Value” (3000 ppm ε-PL, after 1 hour) of the same substance?
A: The value was less than 1.00.

Q: And the “average of CFU/dumpling” value (3000 ppm ε-PL, after 1 hour)?
A: The value was less than 1.00E+01 CFU/dumpling.

Q: What about the “Log Reduction” value (3000 ppm ε-PL, after 1 hour) of the same substance?
A: Its value is greater than 2.41.

Q: And the CFU/dumpling (3000 ppm ε-PL, after 24 hours)?
A: Its CFU/dumpling is less than 1.00E+01 CFU/dumpling.

Q: And the “average Log Value” (3000 ppm ε-PL, after 24 hours)?
A: Its value is less than 1.00.

Q: And the “average of CFU/dumpling” value (3000 ppm ε-PL, after 24 hours)?
A: Its value is less than 1.00E+01 CFU/dumpling.

Q: And the “Log Reduction” value (3000 ppm ε-PL, after 24 hours)?
A: Its value is greater than 3.74.

Q: And the “replication of Listeria monocytogenes” value (final concentration of 1000-3000 ppm in flour portion of dumpling)?
A: The value was “completely suppressed replication of Listeria monocytogenes”.
